According to patent US20220079888A1, “PRE-NATAL BETA-CRYPTOXANTHIN BENEFITS CHILDREN” (AGENCY FOR SCIENCE, TECHNOLOGY AND RESEARCH (A*STAR), priority 2019, published 2022):

Test system: infants at 24 months
Test: Associations of maternal plasma carotenoids concentrations with Bayley Scales of Infant and Toddler Development-III (BSID-III) scores, GUSTO cohort, linear regression
Type: in vivo, human
Details: for Cognitive β (95% CI) / Expressive Language β (95% CI) / Fine motor β (95% CI) / Gross motor β (95% CI) / Receptive language β (95% CI): per SD increment in log-transformed maternal plasma concentration
Protocol: The Bayley Scales of Infant and Toddler Development, 3rd edition (BSID-III) 2006 was administered to infants at 24 (±1) months, in their homes when infants were likely to be alert. This is a standardized test that assesses development of children 1-42 months of age in the following domains: cognitive, receptive and expressive language, and fine and gross motor skills. The test was administered in English, Chinese, Malay or Tamil languages depending on the child's dominant language.
Data for the present analysis were from the Growing Up in Singapore Towards healthy Outcomes (GUSTO) study a prospective mother-offspring cohort in Singapore (34). Detailed descriptions of the GUSTO study have been published Soh, et al 2014 Int. J Epidemiology 43(5):1401-9, which is hereby incorporated by reference. In brief, pregnant women (≥18 years) in their first trimester (<14 weeks) were recruited from the National University Hospital (NUH) and KK Women's and Children's Hospital (KKH) between June 2009 and September 2010. To be eligible for the study, the pregnant person had to: 1) be a Singapore citizen or permanent residents of Chinese, Malay or Indian ethnicity with homogenous parental ethnic background; 2) have an intention to deliver in the two hospitals and to reside in Singapore for the next five years; and 3) consent to donate birth tissues at delivery. Women receiving chemotherapy, psychotropic drugs or were diagnosed with type-1 diabetes were not eligible to participate. The GUSTO study has received ethical approval from the Institutional Review Board of NUH and KKH, and all procedures were conducted according to the guidelines laid down in the Declaration of Helsinki. Written informed consent was obtained from all participants at study recruitment.
A total of 1247 pregnant women participated at baseline. The present analysis included pregnant women who had singleton live births (n=1237), in whom plasma carotenoids concentrations were analyzed (n=701), and their offspring completed neurocognitive assessments at 24 months (n=361).
Administration and scoring was performed by research coordinators trained by the head psychologist from KKH in accordance to the manual. Raw test scores were used as age-specific norms were not available for our population.
Maternal plasma concentrations of individual carotenoids were summarized according to maternal and infant characteristics for the 419 mother-offspring pairs with data for the cognitive test. Differences in concentrations between groups were compared using non-parametric analyses Wilcoxon rank-sum and Kruskal-Wallis tests, as data were not normally distributed. Bonferroni post hoc analysis was performed to identify groups which differed if the Kruskal Wallis test was significant. The values for individual maternal plasma carotenoids were log-transformed, then converted to standard deviation scores (SDS) for easier interpretation. The BSID-III raw scores were also converted to SDS to facilitate comparison across the cognitive tests and domain scales.
Associations of each maternal plasma carotenoids with each BSID-III scale in the children were examined using linear regressions. Several statistical models were employed: Model 1 basic model with adjustment for infant's exact age at cognitive testing; Model 2 additional adjustment for maternal age, ethnicity, education, pre-pregnancy BMI, antenatal depression and anxiety levels (potential confounders). We considered Model 2 to be the main model. Further adjustment for infant gestational age, birth weight and breastfeeding duration was performed to examine if any associations found were acting through these factors (Model 3).
Missing data for covariates were imputed using multiple imputation technique with chained equations (20 times) for the following confounding variables: n=3 maternal education, n=7 EPDS, n=21 STAI, n=40 maternal pre-pregnancy BMI, n=5 infant birthweight and n=10 breastfeeding duration. […]

[1] = Model 1 (adjusted for infant's age at testing), BSID-III at 24 months, n = 361
[2] = Model 1, BSID-III at 24 months, n = 361
[3] = Model 2 (Model 1 plus maternal age, ethnicity, education, pre-pregnancy BMI, parity, antenatal depression and anxiety), 24 months
[4] = Model 2 (adjusted for confounders), 24 months
[5] = Model 3 (Model 2 plus infant gestational age, birth weight, breastfeeding duration), 24 months
[6] = Model 3 (also adjusted for potential mediators), 24 months

SMILES	Cognitive β (95% CI) [1]	Expressive Language β (95% CI) [2]	Fine motor β (95% CI) [2]	Gross motor β (95% CI) [2]	Receptive language β (95% CI) [2]	Cognitive β (95% CI) [3]	Expressive Language β (95% CI) [4]	Fine motor β (95% CI) [4]	Gross motor β (95% CI) [4]	Receptive language β (95% CI) [4]	Cognitive β (95% CI) [5]	Expressive Language β (95% CI) [6]	Fine motor β (95% CI) [6]	Gross motor β (95% CI) [6]	Receptive language β (95% CI) [6]	association of higher maternal concentrations with performance in expressive language (24 months, result in words)	association of higher maternal concentrations with receptive language (24 months, result in words)	Expressive Language β (95% CI) (Model 2 (adjusted for confounders), 24 months, listed as lycopene)	association of higher maternal concentrations with cognitive development in infants (BSID-III scales at 24 months, after adjustment for confounders, result in words)
CC1=C(/C=C/C(C)=C/C=C/C(C)=C/C=C/C=C(C)/C=C/C=C(C)/C=C/C2=C(C)C[C@@H](O)CC2(C)C)C(C)(C)C[C@H](O)C1 [Zeaxanthin, zeaxanthin]	0.01 SD	−0.09 SD	0.04 SD	0.02 SD	−0.10 SD	0.05 SD	−0.05 SD	0.05 SD	0.04 SD	−0.05 SD	0.05 SD	−0.04 SD	0.05 SD	0.05 SD	−0.04 SD				
CC1=CCCC(C)(C)C1/C=C/C(C)=C/C=C/C(C)=C/C=C/C=C(C)/C=C/C=C(C)/C=C/C1=C(C)CCCC1(C)C (stereo not drawn) [α-carotene]	0.06 SD	0.10 SD	0.08 SD	0.08 SD	0.09 SD	−0.01 SD	0.06 SD	0.06 SD	0.06 SD	0.002 SD	−0.04 SD	0.02 SD	0.05 SD	0.04 SD	−0.04 SD				
CC1=C[C@H](O)CC(C)(C)[C@H]1/C=C/C(C)=C/C=C/C(C)=C/C=C/C=C(C)/C=C/C=C(C)/C=C/C1=C(C)C[C@@H](O)CC1(C)C [Lutein, lutein]	0.03 SD	0.004 SD	0.01 SD	0.03 SD	0.08 SD	−0.08 SD	−0.09 SD	0.02 SD	−0.02 SD	−0.04 SD	−0.11 SD	−0.12 SD	−0.04 SD	−0.04 SD	−0.08 SD				
CC1=C(/C=C/C(C)=C/C=C/C(C)=C/C=C/C=C(C)/C=C/C=C(C)/C=C/C2=C(C)CCCC2(C)C)C(C)(C)CCC1 [β-carotene]	0.22 SD	0.18 SD	0.14 SD	0.15 SD	0.23 SD	0.16 SD	0.14 SD	0.12 SD	0.14 SD	0.15 SD	0.13 SD	0.10 SD	0.10 SD	0.12 SD	0.11 SD				
CC(C)=CCC/C(C)=C/C=C/C(C)=C/C=C/C(C)=C/C=C/C=C(C)/C=C/C=C(C)/C=C/C=C(\C)CCC=C(C)C [Lycopene, lycopene]	0.14 SD	0.15 SD	0.04 SD	0.09 SD	0.11 SD	0.12 SD	0.15 SD	0.03 SD	0.08 SD	0.09 SD	0.11 SD	0.14 SD	0.02 SD	0.09 SD	0.07 SD	associated with better performance	not with receptive language	0.15 SD	
CC1=C(/C=C/C(C)=C/C=C/C(C)=C/C=C/C=C(C)/C=C/C=C(C)/C=C/C2=C(C)C[C@@H](O)CC2(C)C)C(C)(C)CCC1 [β-cryptoxanthin]	0.21 SD	0.15 SD	0.17 SD	0.17 SD	0.21 SD	0.18 SD	0.13 SD	0.16 SD	0.16 SD	0.17 SD	0.18 SD	0.12 SD	0.15 SD	0.15 SD	0.16 SD				most consistently associated with better cognitive development
